Measured values reported in US10280146B2, “Pyrimidone compounds used as Lp-PLA2 inhibitors and pharmaceutical compositions thereof” (Shanghai Institute of Materia Medica, Chinese Academy of …, priority 2014, dated 2019).

How the values were obtained:
[1] = biological target: T1, Lp-PLA2 (rabbit serum as the source of enzyme) (Oryctolagus cuniculus, UniProt G1SE06); experiment: In vitro inhibitory activity on Lp-PLA2, rabbit serum as the source of enzyme (2-thio-PAF/DTNB); assay type: biochemical; details: read-out: Inhibitory ratio, % on Lp-PLA2 (rabbit serum as the source of enzyme); for inhibition at 0.01 µM: 10 nM compound, — = no inhibitory activity; for inhibition at 0.1 µM: 100 nM compound; for inhibition at 1 µM: 1 μM compound
T1 construct: Rabbit Serum as the Source of Enzyme; from tissue; host or cells: rabbit serum
T1 sequence (G1SE06 22-423): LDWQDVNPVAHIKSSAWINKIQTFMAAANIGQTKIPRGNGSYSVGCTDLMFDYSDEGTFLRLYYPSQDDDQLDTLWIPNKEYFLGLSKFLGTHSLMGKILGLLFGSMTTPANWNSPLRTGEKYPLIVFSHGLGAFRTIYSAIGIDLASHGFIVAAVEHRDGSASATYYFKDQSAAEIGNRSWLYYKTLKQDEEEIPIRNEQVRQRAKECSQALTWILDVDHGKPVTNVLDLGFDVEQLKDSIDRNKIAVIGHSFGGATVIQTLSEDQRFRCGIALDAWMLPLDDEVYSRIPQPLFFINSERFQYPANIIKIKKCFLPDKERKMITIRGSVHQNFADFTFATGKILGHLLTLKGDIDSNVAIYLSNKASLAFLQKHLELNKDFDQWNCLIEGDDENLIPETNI
Protocol: (§1) 0.1M Tris-HCl, 1 mM EGTA, PH 7.2
(§2) Anhydrous ethanol was used as solvent to make a 25 mg/ml mother liquor. The solution was aliquoted, stored at −80° C. and diluted 900 times before use (about 50 μM of concentration)
(§3) 3) DTNB (5,5′-dithio-bis-(2-nitrobenzoic acid), Sigma, Lot D8130)
(§4) The solution was prepared just before use.
(§5) 4) Compound was dissolved in DMSO to a suitable concentration.
(§6) Lp-PLA2 activity was determined by using 2-thio-PAF as substrate. The thiol group produced upon the hydrolysis of 2-thio-PAF can react with DTNB to generate a yellow substance. The optical density at 414 nm can be detected to reflect Lp-PLA2 activity.
1.1 Determination of the Inhibitory Activity of the Compounds on Lp-PLA2 (Rabbit Serum as the Source of Enzyme) (In Vitro)
1) The corresponding reagents were added according to Table 1 and mixed uniformly by shaking.
(§7) 2) 10 μL of DTNB was added to each well.
(§8) 3) 150 μL of 2-thio-PAF was added to each well and shaken for 15 s on a microplate reader to mix the liquid in the well uniformly.

[2] = biological target: T2, Lp-PLA2 (human recombinant enzyme as the source of enzyme) (Homo sapiens, UniProt Q13093); experiment: In vitro inhibitory activity on Lp-PLA2, human recombinant enzyme (2-thio-PAF/DTNB); assay type: biochemical; details: read-out: inhibitory ratio, % on Lp-PLA2 (human recombinant enzyme as the source of enzyme); for inhibition at 0.01 µM: 10 nM compound; for inhibition at 0.1 µM: 100 nM compound
T2 sequence (Q13093 22-441): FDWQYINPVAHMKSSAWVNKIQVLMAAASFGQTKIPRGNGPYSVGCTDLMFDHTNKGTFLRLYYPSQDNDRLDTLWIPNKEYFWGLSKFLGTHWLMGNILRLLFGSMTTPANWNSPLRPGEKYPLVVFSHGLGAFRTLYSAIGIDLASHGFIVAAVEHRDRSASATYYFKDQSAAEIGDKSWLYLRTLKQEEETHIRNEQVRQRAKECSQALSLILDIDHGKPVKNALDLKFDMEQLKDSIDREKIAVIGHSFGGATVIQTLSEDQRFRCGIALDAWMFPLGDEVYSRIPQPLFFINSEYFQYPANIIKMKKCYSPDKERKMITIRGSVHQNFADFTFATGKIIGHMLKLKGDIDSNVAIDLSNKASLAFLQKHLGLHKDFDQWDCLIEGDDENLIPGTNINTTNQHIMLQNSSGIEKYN
Protocol: as §1, §2, §3, §4, §5, §6
1.2 Determination of the Inhibitory Activity of the Compounds on Lp-PLA2 (Human Recombinant Enzyme as the Source of Enzyme) (In Vitro)
1) The corresponding reagents were added according to Table 3 and mixed uniformly by shaking.
as §7, §8

[3] = tested on: Lp-PLA2 (rat serum as the source of enzyme); experiment: In vitro inhibitory activity on Lp-PLA2, rat serum as the source of enzyme (2-thio-PAF/DTNB); assay type: biochemical; set-up: key: “—” indicates no inhibitory activity
Protocol: as §1, §2, §3, §4, §5, §6
1.3 Determination of the Inhibitory Activity of the Compounds on Lp-PLA2 (Rat Serum as the Source of Enzyme (In Vitro)
1) The corresponding reagents were added according to Table 5 and mixed uniformly by shaking.
as §7, §8

[4] = tested on: spontaneous type 2 diabetes ZDF rats; experiment: Long-term administration in spontaneous type 2 diabetes ZDF rats (blood glucose and other biochemical indexes); assay type: in vivo, rat
Source text: Positive control: metformin, produced by China-US Shanghai Squibb Pharmaceutical Co., Ltd.; dissolved in ultra-pure water.
Varieties: ZDF rats, ZL rats; Grade: SPF grade; Age: 56-62 days; Gender: Male; Source: Beijing Weitong Lihua Experimental Animal Co., Ltd.
The kits for total cholesterol (TC), triglyceride (TG), high density lipoprotein cholesterol (HDL-C), low density lipoprotein cholesterol (LDL-C), blood glucose (GLU), aspartate transferase (AST), alanine aminotransferase (ALT), alkaline phosphatase (ALP), urea (BUN), creatinine (CREA) and the like were purchased from Shanghai Shenneng Desai Diagnostic Technology Co., Ltd. The reagents for glycosylated hemoglobin (HbAlc) assay was purchased from Trinity Biotech Corporation. Insulin ELISA Assay Kit was purchased from BertinPharma Corporation. Urine microalbumin (mALB) and other ELISA kits were purchased from Nanjing Jiancheng Bioengineering Institute.
Two ZDF rat groups were orally administered with the compound of example 11 and metformin, respectively. […] The dose of metformin was 300 mg/kg/day. Both were administered for a period of 6 weeks.
Thirty male ZDF rats (56˜62 days old) were fed with Purina #5008 feed (purchased from Nongbiao Purina Feed Co., Ltd.) and the other 6 ZL rats were fed with normal diet as normal control. After fed for 2 weeks, the empty body weights of the fasting rats (fasting for 10 h, free to drink water) were weighed. 0.3 mL blood was collected through tail vein and placed in EDTA anticoagulant tube for the determination of glycosylated hemoglobin (HbAlc). Another 0.5 mL blood was collected and centrifugated at 3000 rpm for 10 min to separate serum which then was determined by automatic biochemical analyzer Model 7020. The serum was separated and then blood glucose and blood lipid (GLU, TC, TG) and hepatorenal function (ALT, AST, ALP, BUN, CREA) were determined. The ZDF rats with blood glucose far from the mean value or having other abnormal indexes were removed and 18 ZDF rats with GLU close to the mean value were selected.
Rats in each group were given the corresponding drug or solvent by gavage through oral once a day in the morning for 6 continuous weeks. Another 6 ZL rats were taken as normal control group.
Every 2 weeks the rats were fasted but allowed free drinking for 10 h, the empty body weight was weighed and 0.5 mL blood was collected through the tail vein to determine the blood glucose levels. The levels of insulin, glycosylated hemoglobin and triglyceride were measured at the 4th week of administration and at the end of the administration. The levels of low density lipoprotein and high density lipoprotein were measured at the 6th week of administration. The urine samples were collected once before the end of the administration and 24 h (11:00 am to 11:00 am the next day) urine samples were collected to detect urinary albumin content in urine.
Statistical analysis was performed with EXCEL 2007 software.

[5] = tested on: STZ-induced diabetic rats; experiment: Retinal thickness of STZ-induced diabetic rats, long-term administration; assay type: in vivo, rat; details: 25 mg/kg/day oral, 4 weeks
Source text: Test compound: […] Positive control: Darapladib, dissolved in ultrapure water. […] All SD rats were preconditioned for 3-5 days. […] The diabetic model was established when the blood glucose of the rats was more than 10 mmol/L. […] The rats were administrated once a day. […] The eyeballs of the rats were removed, frozen and sectioned and the thickness of each slice was 8 μm. The slice was stained with conventional hematoxylin/eosin and photographed with a 400-fold optical microscope (Eclipse 80i, Nikon). The thickness of the retina was analyzed using the software Image-Pro plus 6.0. Five points were selected in each photo. Statistical analysis was performed with the EXCEL 2007 software. […] The experiment results were evaluated by Student T test.

[6] = 10 nM compound, — = no inhibitory activity
[7] = oral 25 then 10 mg/kg/day, 4 weeks after the administration
[8] = oral 25 then 10 mg/kg/day, 6 weeks after the administration

Row | inhibition at 0.01 µM [1] [%] | inhibition at 0.1 µM [1] [%] | inhibition at 1 µM [1] [%] | inhibition at 0.01 µM [2] [%] | inhibition at 0.1 µM [2] [%] | inhibitory ratio, % on Lp-PLA2 (rat serum as the source of enzyme) [3, 6] | inhibitory ratio, % on Lp-PLA2 (rat serum as the source of enzyme) ([3]; 100 nM compound) [%] | Structure (SMILES) | retinal thickness compared with the model control group [5] | other results
1 | 49.2 | 93.8 | 97.3 | ~90 | 100 | 18.21% | 73.23 | Cn1c(N2CCOCC2)cc(OCCc2cc(F)c(Oc3ccc(Cl)c(C(F)(F)F)c3)c(F)c2)nc1=O [Example 5, 4-(4-(4-chloro-3-(trifluoromethyl)phenoxy)-3,5-difluorophenethyloxy)-1-methyl-6-morpholinopyrimidin-2(1H)-one] |  | 
2 | 13.2 | 77.4 | 96.4 | 55.3 | 92.4 | 6.84% | 50.35 | Cn1c(N2CCC(F)(F)C2)cc(OCc2cc(F)c(Oc3ccc(Cl)c(C(F)(F)F)c3)c(F)c2)nc1=O [Example 16] |  | 
3 |  | 57.3 | 93.5 |  |  |  |  | Cn1c(N2CCOCC2)cc(OCc2cc(F)c(Oc3ccc(C(F)(F)F)nc3)c(F)c2)nc1=O [Example 26] |  | 
4 | 22.6 | 83.5 | 97.1 |  |  |  |  | Cn1c(N2CCOCC2)cc(OCc2cc(F)c(Oc3ccnc(C(F)(F)F)c3)c(F)c2)nc1=O [Example 29] |  | 
5 |  | 54.1 | 95.6 | 53.9 | 95.6 |  |  | CCn1c(N2CCOCC2)cc(OCc2cc(F)c(Oc3ccc(Cl)c(C(F)(F)F)c3)c(F)c2)nc1=O [Example 34, 4-(4-(4-chloro-3-(trifluoromethyl)phenoxy-3,5-difluorobenzyl)oxy)-1-ethyl-6-morpholinopyrimidin-2(1H)-one] |  | 

Continued, molecule first:

Row | Structure (SMILES) | inhibition at 0.01 µM [1] [%] | inhibition at 0.1 µM [1] [%] | inhibition at 1 µM [1] [%] | inhibition at 0.01 µM [2] [%] | inhibition at 0.1 µM [2] [%] | inhibitory ratio, % on Lp-PLA2 (rat serum as the source of enzyme) [3, 6] | inhibitory ratio, % on Lp-PLA2 (rat serum as the source of enzyme) ([3]; 100 nM compound) [%] | retinal thickness compared with the model control group [5] | other results
6 | CN(C)c1cc(OCc2cc(F)c(Oc3ccc(Cl)c(C(F)(F)F)c3)c(F)c2)nc(=O)n1C [Example 11] |  |  |  |  |  |  |  | significantly decreased | blood glucose level compared with the model control group ([4]; oral 25 mg/kg/day first 4 days then 10 mg/kg/day, 2 weeks, 4 weeks and 6 weeks after administration): significantly decreased; insulin level compared with the model control group [4, 7]: significantly increased; triglyceride level compared with the model control group [4, 7]: significantly decreased; glycosylated hemoglobin levels compared to the model control group ([4]; oral 25 then 10 mg/kg/day, 4 weeks and 6 weeks after the administration): significantly reduced; insulin level compared with the model control group ([4]; oral 25 then 10 mg/kg/day, 6 weeks): remarkably increased; high-density lipoprotein level compared with the model control group [4, 8]: no significant change; level of low-density lipoprotein compared with the model control group [4, 8]: significantly reduced; urinary albumin levels in the urine compared with the model control group ([4]; oral 25 then 10 mg/kg/day, 24 h urine, 6 weeks after the administration): significantly reduced
7 | Cn1c(-c2ccccc2)cc(OCc2cc(F)c(Oc3ccc(Cl)c(C(F)(F)F)c3)c(F)c2)nc1=O [Example 19, 4-((4-(4-chloro-3-(trifluoromethyl)phenoxy)-3,5-difluorobenzyl)oxy)-1-methyl-6-phenylpyrimidin-2(1H)-one] |  | 59.7 |  | 53.6 | 89.7 | — | 18.06 |  | 
8 | COc1ccc(-c2cc(OCc3cc(F)c(Oc4ccc(Cl)c(C(F)(F)F)c4)c(F)c3)nc(=O)n2C)cc1 [Example 20, 4-((4-(4-chloro-3-(trifluoromethyl)phenoxy)-3,5-difluorobenzyl)oxy)-6-(4-methoxyphenyl)-1-methylpyrimidin-2(1H)-one] |  | 54.2 |  | 46.9 | 90.4 | — | 43.27 |  | 
9 | Cn1c(N2CCOCC2)cc(OCc2ccc(Oc3ccc(Cl)c(C(F)(F)F)c3)c(C#N)c2)nc1=O [Example 27, 2-(4-chloro-3-(trifluoromethyl)phenoxy)-5-((1-methyl-6-morpholinyl-2-oxo-1,2-dihydropyrimidin-4-oxy)methyl)benzonitrile] |  |  |  |  |  |  |  | significantly decreased | 
10 | CCN(CC)CCN(Cc1ccc(-c2ccc(C(F)(F)F)cc2)cc1)C(=O)Cn1c(SCc2ccc(F)cc2)nc(=O)c2c1CCC2 [darapladib, reference compound] |  |  |  |  |  |  |  | significantly decreased | 
